Laboratory results taken from BindingDB's records for doi:10.1021/acs.jmedchem.1c01681 (Second Military Medical University, 2021).

Assay: Inhibition of SARS-CoV-2 spike glycoprotein expressed in HEK293T cells transfected with pAAV-CAG-HnCovS-RFP assessed as inhibition of membrane fusion to Huh-7 cells expressing hACE2 measured after 4 hrs by cell-cell fusion based fluorescence assay

Work on `CC[C@H](C)[C@H](NC(=O)CNC(=O)[C@H](CO)NC(=O)[C@@H](NC(=O)[C@H](CC(=O)O)NC(C)=O)[C@@H](C)CC)C(=O)N[C@@H](CC(N)=O)C(=O)N[C@@H](C)C(=O)N[C@@H](CO)C(=O)N[C@H](C(=O)N[C@H](C(=O)N[C@@H](CC(N)=O)C(=O)N[C@H](C(=O)N[C@@H](CCC(N)=O)C(=O)N[C@@H](CCCCN)C(=O)N[C@@H](CCC(=O)O)C(=O)N[C@H](C(=O)N[C@@H](CC(=O)O)C(=O)N[C@@H](CCCNC(=N)N)C(=O)N[C@@H](CC(C)C)C(=O)N[C@@]1(C)CCCC=CCCC[C@@](C)(C(=O)N[C@@H](CC(N)=O)C(=O)N[C@@H](CC(C)C)C(=O)N[C@@H](CC(N)=O)C(=O)N[C@@H](CCC(=O)O)C(=O)N[C@@H](CO)C(=O)N[C@@H](CC(C)C)C(=O)N[C@H](C(=O)N[C@@H](CC(=O)O)C(=O)N[C@@H](CC(C)C)C(=O)N[C@@H](CCC(N)=O)C(=O)N[C@@H](CCC(=O)O)C(=O)N[C@@H](CC(C)C)C(N)=O)[C@@H](C)CC)NC(=O)[C@H](C)NC(=O)[C@H](C(C)C)NC(=O)[C@H](CCC(=O)O)NC1=O)[C@@H](C)CC)[C@@H](C)CC)C(C)C)C(C)C` yielded an EC50 of 5 µM.
